Measurements from US6362212B1, “Oxime derivative and bactericide containing the same as active ingredient” (Shionogi & Company, Ltd., priority 1994, dated 2002).

Legend:
Type in all cases: in vivo
Pyricularia oryzae = settings: foliage spray on rice seedlings (cv. […]), number of lesions six days after the inoculation
Sphaerotheca fuliginea = assay: Controlling effect on Sphaerotheca fuliginea by foliage application (pot experiment); settings: foliage spray on cucumber (cv. TSUKUBASHIROIBO) first leaves, infected area after 10 days in greenhouse at 20° C.; for pest or weed control at 500 ppm: Podosphaera fuliginea, in Cucumis sativus, foliar, 240 h, read-out: Controlling effect on Sphaerotheca fuliginea by foliage application at 500 ppm (percent control)
Summary of the method: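 First leaves of cucumber seedlings, 2-3 weeks old, were sprayed with compound (DMF solution diluted in water with spreader). They were inoculated 24 h later with a Sphaerotheca fuliginea conidia spray and kept 10 days at 20° C in a greenhouse. Percent control was calculated from infected leaf area.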

[1] = tested on: Erysiphe graminis f. sp. tritici; assay: Controlling effect on Erysiphe graminis f. sp. tritici by foliage application (pot experiment); settings: foliage spray on wheat (cv. NORIN No. 61) seedlings, infected area after 10 days in greenhouse at 20° C.; for pest or weed control at 500 ppm: Blumeria graminis, foliar, 240 h, read-out: Controlling effect on ErYsiphe graminis f. sp. tritici by foliage application at 500 ppm (percent control)
Summary of the method: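 Wheat seedlings (cv. NORIN No. 61, 2-3 weeks old) sprayed with compound in DMF diluted in water with spreader, then inoculated with conidia 24 hours later. Kept in greenhouse at 20 °C for 10 days; percent control calculated from infected leaf area.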

[2] = tested on: Pseudoperonospora cubensis; assay: Controlling effect on Pseudoperonospora cubensis by foliage application (pot experiment); settings: foliage spray on cucumber (var. TSUKUBASHIROIBO) first leaves, lesion area after 10 days in moist chamber at 20° C.
Description: The following Test Examples illustrate the effects of the fungicide of the present invention. (I. Controlling effects on various plant diseases by foliage application (pot experiment)) A test compound was dissolved in a small amount of N,N-dimethylformamide, and the solution was diluted to a given concentration with distilled water containing a spreader. Thus, a liquid sample to be tested was prepared. The liquid sample was sprayed to test plants, and 24 hours thereafter, pathogens were inoculated by the method described below. […] The seeds of cucumber (var.: […]) were sown in plastic cups (each 9 cm in diameter), followed by cultivation for 2 to 3 weeks. The test compound in the form of a solution or suspension was sprayed to the surface of their first leaves, and a zoosporangia suspension of Pseudoperonospora cubensis cultured on cucumber leaves was dropped on the above leaf surfaces to inoculate the test plants with the pathogen. After the inoculation, the plants were kept in a moist chamber at 20° C. for 10 days. Then, the area of the lesions around the inoculum were observed and the percent control was calculated.

Structure (SMILES) | Controlling effect on PYricularia orYzae by foliage application at 500 ppm (percent control) (Pyricularia oryzae) | Controlling effect on Sphaerotheca fuliginea by foliage application at 500 ppm (percent control) (Sphaerotheca fuliginea) | Controlling effect on ErYsiphe graminis f. sp. tritici by foliage application at 500 ppm (percent control) [1] | Controlling effect on Pseudoperonospora cubensis by foliage application at 500 ppm (percent control) [2] | pest or weed control at 500 ppm (Sphaerotheca fuliginea) | pest or weed control at 500 ppm [1]
CON=C(c1ccon1)c1ccccc1COc1ccccc1Cl (mixture of isomers) [compound 305] | 70 percent control | 100 percent control | 90 percent control | 100 percent control |  | 
CON=C(c1ccon1)c1ccccc1COc1cccc(Cl)c1 (mixture of isomers) [compound 306] | 70 percent control | 97 percent control | 70 percent control | 100 percent control |  | 
CON=C(c1ccon1)c1ccccc1COc1cccc(C)c1 (mixture of isomers) [compound 313] | 90 percent control | 100 percent control | 70 percent control | 100 percent control |  | 
CON=C(c1ccccc1COc1ccccc1Cl)c1nccn1C (single isomer, unassigned) [105A] | 97 percent control | 100 percent control | 70 percent control | 100 percent control |  | 
CON=C(c1ccccc1COc1cccc(C)c1)c1nccn1C (single isomer, unassigned) [113A] | 97 percent control | 100 percent control | 90 percent control | 100 percent control |  | 
CON=C(c1ccccc1COc1cc(Cl)ccc1Cl)c1nccn1C (single isomer, unassigned) [131A] | 90 percent control | 100 percent control | 90 percent control | 100 percent control |  | 
CON=C(c1ccno1)c1ccccc1COc1ccccc1C (single isomer, unassigned) [512A] | 90 percent control | 100 percent control | 97 percent control | 100 percent control |  | 
CON=C(c1ccno1)c1ccccc1COc1ccccc1C (single isomer, unassigned) [512B] | 97 percent control | 100 percent control | 97 percent control | 100 percent control |  | 
CON=C(c1ccno1)c1ccccc1COc1ccc(Cl)cc1C (single isomer, unassigned) [541B] | 70 percent control | 100 percent control | 90 percent control | 100 percent control |  | 
CON=C(c1cc(C)no1)c1ccccc1COc1cccc(C)c1 (single isomer, unassigned) [613A] | 70 percent control | 100 percent control | 90 percent control | 70 percent control |  | 
CON=C(c1cc(C)no1)c1ccccc1COc1ccc(C)cc1 (single isomer, unassigned) [614B] | 70 percent control | 97 percent control | 70 percent control | 100 percent control |  | 
CON=C(c1cc(C)no1)c1ccccc1COc1ccc(Cl)cc1C (single isomer, unassigned) [641A] | 70 percent control | 100 percent control | 90 percent control | 100 percent control |  | 
CON=C(c1cc(C)no1)c1ccccc1COc1ncc(C(F)(F)F)cc1Cl (single isomer, unassigned) [690A, 2-(3-chloro-5-trifluoromethyl-2-pyridyloxymethyl)phenyl 3-methylisoxazol-5-yl ketone O-methyloxime] | 97 percent control |  |  | 100 percent control | 100% | 100%
CON=C(c1ccccc1ON=C(C)c1cccc(C(F)(F)F)c1)C1NCCS1 (stereo not drawn) [Compound No. 2799, 2-[(α-methyl-3-trifluoromethylbenzylidene)aminooxy]phenyl thiazolidin-2-yl ketone O-methyloxime] | 100 percent control |  |  | 95 percent control | 100% | 97%
CON=C(c1ccccc1CON=C(C)c1cccc(C(F)(F)F)c1)C1SCCN1C (stereo not drawn) [Compound No. 2839] | 90 percent control | 100 percent control | 97 percent control | 95 percent control |  | 
CON=C(c1nnco1)c1ccccc1COc1cccc(Cl)c1 [compound 706] | 70 percent control | 100 percent control | 90 percent control | 100 percent control |  | 
CCc1cccc(OCc2ccccc2C(=NOC)c2nnco2)c1 [compound 716] | 70 percent control | 100 percent control | 70 percent control | 100 percent control |  | 
CON=C(c1nnco1)c1ccccc1COc1cc(Cl)ccc1Cl [compound 731] | 70 percent control | 100 percent control | 70 percent control | 100 percent control |  | 
